The values below come from patent US20210317092A1 (BAYER PHARMA AKTIENGESELLSCHAFT, priority 2016, published 2021).

Read-outs that look alike come from different tables or passages of the source.

This test concerns the target T1, human Bradykinin B1 receptor (Homo sapiens, UniProt P46663).
T1 construct: host or cells: CHO-K1
T1 sequence (P46663 1-353): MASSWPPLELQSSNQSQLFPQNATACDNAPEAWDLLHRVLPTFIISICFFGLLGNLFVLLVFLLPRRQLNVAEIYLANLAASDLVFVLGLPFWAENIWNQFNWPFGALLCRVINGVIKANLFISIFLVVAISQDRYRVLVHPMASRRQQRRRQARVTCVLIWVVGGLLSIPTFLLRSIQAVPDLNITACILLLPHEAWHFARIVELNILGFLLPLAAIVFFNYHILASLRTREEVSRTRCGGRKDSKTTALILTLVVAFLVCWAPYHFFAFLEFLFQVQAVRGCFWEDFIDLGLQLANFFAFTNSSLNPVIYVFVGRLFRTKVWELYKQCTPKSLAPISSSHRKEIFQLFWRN
Put plainly: Calcium flux Assay (FLIPR) with recombinant CHO-K1 cells expressing human Bradykinin B1 receptor, in presence (hB1 IC50) or absence (hB1 free IC50) of 0.1% BSA. It counts as cell-based. (In general: Calcium flux is commonly read through the fluorescence of an indicator in the cells.)

Where [1] appears, read: in absence of 0.1% BSA, read-out: hB1 free IC50.
Setting [2] is: in presence of 0.1% BSA, read-out: hB1 IC50.

Take `O=C(Nc1ccc(-c2ccnc(C(F)F)c2)c(-c2nnn[nH]2)c1)C1(c2ccc(F)c(F)c2)CC1` [Example 206, N-{4-[2-(difluoromethyl)pyridin-4-yl]-3-(1H-tetrazol-5-yl)phenyl}-1-(3,4-difluorophenyl) cyclopropane-carboxamide]: the IC50 (usually the concentration that gives 50% inhibition) under setting [1] turned out to be 485 nM.
As for `CC(C)(C)c1cnn(-c2ccc(NC(=O)C3(c4ccc(OC(F)(F)F)cc4F)CC3)cc2-c2nnn[nH]2)c1` [Example 411, 1-[2-fluoro-4-(trifluoromethoxy)phenyl]-N-[4-(4-tert-butyl-1H-pyrazol-1-yl)-3-(1H-tetrazol-5-yl)phenyl]cyclopro-pranecarboxa-mide], under setting [1], the half-inhibitory concentration (IC50) turned out to be 6.84 nM.
As for `COc1ccc(-c2ccc(NC(=O)C3(c4ccc(F)cc4)CC3)cc2-c2nnn[nH]2)cc1OC` [Example 11, N-[3′,4′-dimethoxy-2-(1H-tetrazol-5-yl)biphenyl-4-yl]-1-(4-fluorophenyl) cyclopropane-carboxamide], the concentration for half-maximal inhibition (IC50) under setting [2] is 43 nM.
Turning to `COc1cncc(-c2ccc(NC(=O)C3(c4ccc(F)cc4F)CC3)cc2-c2nnn[nH]2)c1` [Example 150, 1-(2,4-difluorophenyl)-N-[4-(5-methoxypyridin-3-yl)-3-(1H-tetrazol-5-yl)phenyl] cyclopropane-carboxamide], the half-maximal inhibitory concentration (IC50) under setting [2] is 39.2 nM.
Consider `Cc1ccc(C2(C(=O)Nc3ccc(-c4ccc(C(F)F)nc4)c(-c4nnn[nH]4)c3)CC2)c(F)c1` [Example 275, N-{4-[6-(difluoromethyl)pyridin-3-yl]-3-(1H-tetrazol-5-yl)phenyl}-1-(2-fluoro-4-methylphenyl)cy-clopropanecar-boxamide], for which, under setting [1], the IC50 worked out at 8.48 nM.
In the case of `O=C(Nc1cc(Cl)c(-c2ccc(C(F)(F)F)nc2)c(-c2nnn[nH]2)c1)C1(c2ccc(F)c(F)c2)CC1` [Example 303, N-{3-chloro-5-(1H-tetrazol-5-yl)-4-[6-(trifluoromethyl)pyridin-3-yl]phenyl}-1-(3,4-difluorophenyl)cy-clopropanecar-boxamide], the IC50 under setting [1] worked out at 52 nM.
With `CC(C)(C)c1ccn(-c2ccc(NC(=O)C3(c4cccc(Cl)c4)CC3)cc2-c2nnn[nH]2)n1` [Example 382, N-[4-(3-tert-Butyl-1H-pyrazol-1-yl)-3-(1H-tetrazol-5-yl)phenyl]-1-(3-chlorophenyl)cyclo-propanecarbox-amide], the IC50 under setting [1] was 768 nM.
For `O=C(Nc1ccc(-c2ccc(C(F)(F)F)nc2)c(-c2nnn[nH]2)c1)C1(c2cc(F)cc(C(F)(F)F)c2)CC1` [Example 289, 1-[3-fluoro-5-(trifluoromethyl)phenyl]-N-{3-(1H-tetrazol-5-yl)-4-[6-(trifluoromethyl)pyridin-3-yl]phenyl}cyclopro-panecarboxa-mide], under setting [1], the IC50 amounted to 50.2 nM.
With `COc1ccc(-c2ccc(NC(=O)C3(C4CCC(C)CC4)CC3)cc2-c2nnn[nH]2)cc1` (single isomer, unassigned) [Example 113, N-[4′-methoxy-2-(1H-tetrazol-5-yl)biphenyl-4-yl]-1-(4-methylcyclo-hexyl) cyclopropane carboxamide], the IC50 under setting [2] was 1200 nM.
For `Cc1ccc(C2(C(=O)Nc3ccc(-n4cc(Cl)cn4)c(-c4nnn[nH]4)c3)CC2)c(F)c1` [Example 393, N-[4-(4-chloro-1H-pyrazol-1-yl)-3-(1H-tetrazol-5-yl)phenyl]-1-(2-fluoro-4-methylphenyl)cy-clopropanecar-boxamide], the IC50 under setting [1] was found to be 187 nM.
As to `COc1ccc(-c2cc(F)c(NC(=O)C3(c4ccc(Cl)cc4)CC3)cc2-c2nnn[nH]2)cc1OC` [Example 264, 1-(4-Chlorophenyl)-N-[5-fluoro-3′,4′-dimethoxy-2-(1H-tetrazol-5-yl)biphenyl-4-yl]cyclopropane carboxamide], the 50% inhibitory concentration (IC50) under setting [1] was found to be 2330 nM and the IC50 under setting [2] was found to be 834 nM.
`Cc1ccc(C2(C(=O)Nc3ccc(-n4cnc(C(C)(C)C)c4)c(-c4nnn[nH]4)c3)CC2)c(F)c1` [Example 402, N-[4-(4-tert-butyl-1H-imidazol-1-yl)-3-(1H-tetrazol-5-yl)phenyl]-1-(2-fluoro-4-methylphenyl)cy-clopropanecar-boxamide]: the concentration for half-maximal inhibition (IC50) under setting [1] was found to be 25.3 nM.
For the molecule `COc1ccc(-c2ccc(NC(=O)C3(c4cccc(F)c4)CC3)cc2-c2nnn[nH]2)cc1OC` [Example 10, N-[3′,4′-dimethoxy-2-(1H-tetrazol-5-yl)biphenyl-4-yl]-1-(3-fluorophenyl) cyclopropane-carboxamide], the IC50 under setting [2] stood at 68.8 nM.
As for `COc1ccc(-c2ccc(NC(=O)C3(C4CCC(C)CC4)CC3)cc2-c2nnn[nH]2)cc1OC` (single isomer, unassigned) [Example 52, N-[3′,4′-dimethoxy-2-(1H-tetrazol-5-yl)biphenyl-4-yl]-1-(4-methylcyclohexyl) cyclopropane carboxamide], the half-inhibitory concentration (IC50) under setting [2] stood at 122 nM.
The same measure, in the same setting: the same measure for `CCOc1ccc(-c2ccc(NC(=O)C3(c4cc(F)cc(OC)c4)CC3)cc2-c2nnn[nH]2)cn1` [Example 103, N-[4-(6-ethoxypyridin-3-yl)-3-(1H-tetrazol-5-yl)phenyl]-1-(3-fluoro-5-methoxyphenyl) cyclopropane-carboxamide]: 28.1 nM.
Consider `CC(C)c1cnn(-c2ccc(NC(=O)C3(c4cccc(Cl)c4)CC3)cc2-c2nnn[nH]2)c1` [Example 396, 1-(3-chlorophenyl)-N-[4-(4-isopropyl-1H-pyrazol-1-yl)-3-(1H-tetrazol-5-yl)phenyl]cyclopro-panecarboxa-mide], for which the concentration for half-maximal inhibition (IC50) under setting [1] stood at 30.7 nM.
As for `COc1ccc(-c2ccc(NC(=O)C3(c4cccc(C(F)(F)F)c4)CC3)cc2-c2nnn[nH]2)cc1OC` [Example 38, N-[3′,4′-dimethoxy-2-(1H-tetrazol-5-yl)biphenyl-4-yl]-1-[3-(trifluoromethyl)phenyl] cyclopropane-carboxamide], the IC50 was 13.7 nM under setting [1] and 38.8 nM under setting [2].
For the molecule `COc1ccc(-c2cc(F)c(NC(=O)C3(c4cc(Cl)ccc4F)CC3)cc2-c2nnn[nH]2)cc1` [Example 229, 1-(5-Chloro-2-fluorophenyl)-N-[5-fluoro-4′-methoxy-2-(1H-tetrazol-5-yl)biphenyl-4-yl]cyclopropane carboxamide], the 50% inhibitory concentration (IC50) under setting [2] stood at 1280 nM.
Regarding `CCc1cnn(-c2ccc(NC(=O)C3(c4ccc(OC(F)(F)F)cc4F)CC3)cc2-c2nnn[nH]2)c1` [Example 377, N-[4-(4-ethyl-1H-pyrazol-1-yl)-3-(1H-tetrazol-5-yl)phenyl]-1-[2-fluoro-4-(trifluoromethoxy)phenyl]cyclo-propanecarboxa-mide], under setting [1], the IC50 came to 6.57 nM.
Turning to `COc1ccc(-c2ccc(NC(=O)C3(c4cc(C(F)(F)F)ccc4F)CC3)cc2-c2nnn[nH]2)cc1OC` [Example 27, N-[3′,4′-dimethoxy-2-(1H-tetrazol-5-yl)biphenyl-4-yl]-1-[2-fluoro-5-(trifluoromethyl)phenyl] cyclopropane-carboxamide], the half-inhibitory concentration (IC50) under setting [2] was determined as 51.5 nM.
In the case of `Cc1ncc(-c2ccc(NC(=O)C3(c4cccc(Cl)c4)CC3)cc2-c2nnn[nH]2)cn1` [Example 194, 1-(3-chlorophenyl)-N-[4-(2-methylpyrimidin-5-yl)-3-(1H-tetrazol-5-yl)phenyl] cyclopropane-carboxamide], the 50% inhibitory concentration (IC50) is 569 nM under setting [1] and 575 nM under setting [2].
Regarding `COc1cc(-c2ccc(NC(=O)C3(c4cccc(Cl)c4)CC3)cc2-c2nnn[nH]2)cnc1C(F)(F)F` [Example 146, 1-(3-chlorophenyl)-N-{4-[5-methoxy-6-(trifluoromethyl)pyridin-3-yl]-3-(1H-tetrazol-5-yl)phenyl} cyclopropane-carboxamide], the IC50 under setting [1] is 100 nM.
On to `COc1cc(-c2ccc(NC(=O)C3(c4cccc(Cl)c4)CC3)cc2-c2nnn[nH]2)cc(C(F)(F)F)n1` [Example 199, 1-(3-chlorophenyl)-N-{4-[2-methoxy-6-(trifluoromethyl)pyridin-4-yl]-3-(1H-tetrazol-5-yl)phenyl} cyclopropane-carboxamide], for which the half-maximal inhibitory concentration (IC50) is 1580 nM under setting [1] and 2400 nM under setting [2].
For the molecule `O=C(Nc1ccc(-c2cc3ccccc3s2)c(-c2nnn[nH]2)c1)C1(c2ccc(C(F)(F)F)cc2F)CC1` [Example 384, N-[4-(1-benzothiophen-2-yl)-3-(1H-tetrazol-5-yl)phenyl]-1-[2-fluoro-4-(trifluoromethyl)phenyl]cyclopro-panecarboxamide], the concentration for half-maximal inhibition (IC50) under setting [1] was 14.9 nM.
Consider `COc1cc(-c2ccc(NC(=O)C3(c4ccc(C(F)(F)F)cc4F)CC3)cc2-c2nnn[nH]2)cc(C(F)(F)F)c1` [Example 133, 1-[2-fluoro-4-(trifluoromethyl)phenyl]-N-[3′-methoxy-2-(1H-tetrazol-5-yl)-5′-(trifluoromethyl)biphenyl-4-yl]cyclopropane carboxamide], for which the IC50 under setting [1] worked out at 217 nM.
The same measure, in the same setting: the same measure for `CC(C)(C)c1cn(-c2ccc(NC(=O)C3(c4ccc(C(F)(F)F)cc4F)CC3)cc2-c2nnn[nH]2)cn1` [Example 403, N-[4-(4-tert-butyl-1H-imidazol-1-yl)-3-(1H-tetrazol-5-yl)phenyl]-1-[2-fluoro-4-(trifluoromethyl)phenyl]cyclopro-panecarboxamide]: 20.6 nM.
Turning to `COc1cc(-c2ccc(NC(=O)C3(c4cccc(Cl)c4)CC3)cc2-c2nnn[nH]2)ccn1` [Example 320, 1-(3-Chlorophenyl)-N-[4-(2-methoxypyridin-4-yl)-3-(1H-tetrazol-5-yl)phenyl]cyclopro-panecarboxa-mide], the concentration for half-maximal inhibition (IC50) under setting [2] is 208 nM.
On the same count and under the same terms, the same measure for `COc1ccc(-c2ccc(NC(=O)C3(c4cccc(F)c4Cl)CC3)cc2-c2nnn[nH]2)cc1OC` [Example 49, 1-(2-chloro-3-fluorophenyl)-N-[3′,4′-dimethoxy-2-(1H-tetrazol-5-yl)biphenyl-4-yl]cyclopropane carboxamide]: 213 nM.
